Source: publication PMC6522510 (Nature Communications, 2019)
Like-named read-outs stand apart in the source and are kept apart here.

Columns and labels:
Parameters in all cases: species or system AML cell lines (8); Primary HTS, single concentration about 10 uM, Cell Titer Glo viability; log10 luminescence, per cent inhibition relative to cycloheximide control
Conditions in all cases: 72 h, relative to cycloheximide control, log10 luminescence, inhibitor
CHRF288-11 = tested on: CHRF288-11
CMK = tested on: CMK
CMS = tested on: CMS
M07e = tested on: M07e
ML-2 = tested on: ML-2
MOLM-13 = tested on: MOLM-13
MV4-11 = tested on: MV4-11
U937 = tested on: U937

SMILES	CHRF288-11 %inh (CHRF288-11) [%]	CMK %inh (CMK) [%]	CMS %inh (CMS) [%]	M07e %inh (M07e) [%]	ML-2 %inh (ML-2) [%]	MOLM-13 %inh (MOLM-13) [%]	MV4-11 %inh (MV4-11) [%]	U937 %inh (U937) [%]	CHRF288-11 %inh (CHRF288-11; CHRF288-11 %inh, 10 µM) [%]	CMK %inh (CMK; CMK %inh, 10 µM) [%]	CMS %inh (CMS; CMS %inh, 10 µM) [%]	M07e %inh (M07e; M07e %inh, 10 µM) [%]	ML-2 %inh (ML-2; ML-2 %inh, 10 µM) [%]	MOLM-13 %inh (MOLM-13; MOLM-13 %inh, 10 µM) [%]	MV4-11 %inh (MV4-11; MV4-11 %inh, 10 µM) [%]	U937 %inh (U937; U937 %inh, 10 µM) [%]
COc1cccc(Nc2nccc(-c3cnn4ncccc34)n2)c1 [SJ000573028-1, U18020/75/1]	61.5	112.7	93.88	96.77	57.03	96.5	76.07	74.45								
COC(=O)Nc1nc2ccc(Sc3ccc(NC(=O)Nc4cc(C(F)(F)F)ccc4F)cc3)cc2[nH]1 [SJ000573029-1, T229/195/1]	10.2	38.89	-0.01293	3.372	2.621	17.62	2.362	5.795								
NC(=O)c1cccc(Nc2nccc(Nc3cccc4[nH]ncc34)n2)c1 [SJ000573030-1, JA205171-001A6]	16.39	-1.424	1.464	5.4	2.579	22.42	23.15	-0.8011								
Cc1cccc(Nc2ncc(-c3ccccc3)o2)c1 [SJ000573031-1, U21834/25/1]	1.444	4.152	1.47	2.356	2.781	78.79	58.38	0.1537								
NC(=O)c1sc(-n2cnc3ccccc32)cc1OCc1ccccc1Br [SJ000573032-1, U22538/78/1]	-0.9565	4.627	2.746	3.083	42.25	1.858	0.1879	1.777								
O=C(Nc1ccc(Oc2ccc3[nH]c(NC(=O)c4ccco4)nc3c2)cc1)Nc1cc(C(F)(F)F)ccc1F [SJ000573033-1, T261/93/1]	89.61	84.76	23.46	35.38	20.85	87.05	70.61	42.07								
NS(=O)(=O)c1cccc(-c2cc3ccncc3cc2OCc2ccccc2)c1 [SJ000573034-1, R14712/3/10]	2.678	-0.5905	1.551	-1.198	0.9825	2.316	0.8878	3.709								
COc1cccc(-n2ncc3c(N/N=C/c4ccc(C)cc4)ncnc32)c1 [SJ000573035-1, U19125/70/4]	-5.466	-4.291	5.04	-2.359	-2.47	-2.64	-1.749	2.182								
CNC(=O)c1ncccc1Nc1nc(Nc2cc3c(cc2OC)CCCN3C(=O)CN(C)C)nc2[nH]ccc12 [SJ000573036-1, N6938-65-1]	21.29	7.075	1.812	30.44	45.98	47.47	4.775	17.5								
COc1cccc(-n2ncc3c(N/N=C/c4ccncc4)ncnc32)c1 [SJ000573037-1, U25132/28/11]	6.081	-6.6	4.136	-4.147	0.6096	-2.08	1.553	-2.89								
COc1cc2c(cc1Nc1nc(Nc3ccsc3C(N)=O)c3cc[nH]c3n1)N(C(=O)CN(C)C)CCC2(C)C [SJ000573038-1, N3343-83-1]	128.8	81.26	16.39	57.48	44.68	92.5	43.78	51.73								
C[C@@H](Oc1cc(-n2cnc3ccc(OCC4CCN(C)CC4)cc32)sc1C(N)=O)c1ccccc1Cl [SJ000573039-1, U21976/12/1]	126.6	58.58	55.73	70.45	55.39	92.23	68.81	67.65								
COc1cc(C)c(NC(=O)CN(C)C)cc1Nc1nc(Nc2cccc(F)c2C(N)=O)c2cc[nH]c2n1 [SJ000573040-1, N5326-72-2]	60.84	111.2	31.36	103.3	42.89	90.07	56.47	70.41								
Nc1ccc(C#Cc2cncnc2Nc2ccc(OCc3cccc(F)c3)c(Cl)c2)cc1 [SJ000573041-1, U17810/18/1]	2.448	13.47	3.795	8.047	5.257	7.505	4.494	3.684								
COc1cc(C)c(N(C)C(=O)CN(C)C)cc1Nc1nc(Nc2cccc(F)c2C(N)=O)c2cc[nH]c2n1 [SJ000573042-1, N5326-79-1]	20.31	3.967	1.596	-1.728	14.99	-1.115	3.146	-0.591								
COc1cc2c(cc1Nc1nc(N3CCc4ccccc43)c3cc[nH]c3n1)N(C(=O)CN(C)C)CC2 [SJ000573043-1, N7699-100-1]	128.5	123.9	96.79	130.8	54.96	9.876	75.42	74.23								
COc1cc2c(cc1Nc1nc(Nc3ccsc3C(N)=O)c3cc[nH]c3n1)N(C(=O)CN(C)C)CCC2 [SJ000573044-1, N3343-60-3]	98.1	100.5	65.93	106	41.91	89.42	66.76	74.84								
Nc1ncnc2occ(-c3ccc(NC(=O)Nc4cccc(C(F)(F)F)c4)cc3)c12 [SJ000573045-1, CL210513-033A3]	45.6	22.69	11.5	17.9	6.046	88.68	73.96	26.65								
CCn1c(-c2nonc2N)nc2cncc(C(=O)NCCNC)c21 [SJ000573046-1, FIDE/U1002/66/2]	15.2	39.87	12.48	12.62	17.45	9.392	47.15	25.48								
CCn1c(-c2nonc2N)nc2cncc(C(=O)N3CCNCC3)c21 [SJ000573047-1, TP100582-069A1]	-1.797	-1.515	1.245	4.058	1.727	0.2835	2.106	1.348								
Nc1ncnc2occ(-c3ccc(NC(=O)Nc4cc(C(F)(F)F)ccc4F)cc3)c12 [SJ000573048-1, CL210513-029A3 | T299/89/1 | YF46626-103A2]									26.14	31.71	8.741	14.83	1.043	82.99	68.76	17.4
